The record followed here is US9994558B2, “Multicyclic compounds and methods of using same” (Karyopharm Therapeutics Inc., priority 2013, dated 2018).

The term IC50 denotes the concentration that inhibits the measured activity by half.

Holding throughout (format): cell-based
One experiment deals with MS751 cells. Briefly: MTT cell proliferation assay, MS751 cells. Conditions: Homo sapiens, incubation approximately 64-72 hours. As to the method:
(§1) The MTT cell proliferation assay was used to study the cytotoxic properties of the compounds. The assay was performed according to the method described by Roche Molecular Biochemicals, with minor modifications. The assay is based on the cleavage of the tetrazolium salt, MTT, in the presence of an electron-coupling reagent. The water-insoluble formazan salt produced must be solubilized in an additional step. Cells grown in a 96-well tissue culture plate were incubated with the MTT solution for approximately 4 hours. After this incubation period, a water-insoluble formazan dye formed. After solubilization, the formazan dye was quantitated using a scanning multi-well spectrophotometer (ELISA reader). […] The cells were seeded at 5,000-10,000 cells in each well of 96-well plate in 100 μL of fresh culture medium and were allowed to attach overnight. The stock solutions of the compounds were diluted in 100 μL cell culture medium to obtain eight concentrations of each test compound, ranging from 1 nM to 30 μM. […] All optical densities were measured at 490 nm using a Vmax Kinetic Microplate Reader (Molecular Devices). In most cases, the assay was performed in duplicate and the results were presented as a mean percent inhibition to the negative control±SE. The following formula was used to calculate the percent of inhibition. Inhibition (%)=(1−(ODo/OD))×100.
(§2) The compounds were tested against MS751, Z138 and 3T3 cells. The MS751 cell line is derived from a metastasis to lymph node of human cervix from a patient diagnosed with squameous cell carcinoma of the cervix. The […] cell line is a mature B-cell acute lymphoblastic leukemia cell line derived from a patient with chronic lymphocytic leukemia. 3T3 cells are standard fibroblast cells; they were originally isolated from Swiss mouse embryo tissue.
(In general: Formazan colour is commonly taken as a measure of viable cells.)

Another experiment deals with Z138 cells. Briefly: MTT cell proliferation assay, Z138 cells. Particulars: Homo sapiens, Z-138, incubation approximately 64-72 hours. As to the method:
as §1, §2

The test system of the next experiment is 3T3 cells. Briefly: MTT cell proliferation assay, 3T3 cells. Particulars: Mus musculus, NIH3T3; 3T3 fibroblast cells; incubation approximately 64-72 hours. The method, then:
as §1, §2

Take `Nc1ccc(/C=C/C(=O)NCCOc2ccc(-c3ccc(C(=O)N4CCC(F)(F)CC4)cn3)cc2C(F)(F)F)cn1` [Compound 355, (E)-3-(6-aminopyridin-3-yl)-N-(2-(4-(5-(4,4-difluoropiperidine-1-carbonyl)pyridin-2-yl)-2-(trifluoromethyl)phenoxy)ethyl)acrylamide]: the IC50 was < 100 nM with MS751 cells, < 100 nM in the experiment on Z138 cells and 0.1 to 5 µM in the experiment on 3T3 cells.

Take `[2H]C([2H])(CNC(=O)/C=C/c1ccc(N)nc1)Oc1ccc(F)c(-c2ccc(C(=O)N3CCOCC3)cc2)c1` [Compound 343, (E)-3-(6-aminopyridin-3-yl)-N-(2,2-dideutero-2-(6-fluoro-4′-(morpholine-4-carbonyl)biphenyl-3-yloxy)ethyl)acrylamide]: the IC50 in the experiment with MS751 cells was 100 to 5000 nM; in the experiment with Z138 cells it was 100 to 5000 nM; in the experiment on 3T3 cells, > 10 µM.

Regarding `CC(=O)c1ccc(-c2ccccc2OCCNC(=O)/C=C/c2cccnc2)s1` [Compound 312, (E)-N-(2-(2-(5-acetylthiophen-2-yl)phenoxy)ethyl)-3-(pyridin-3-yl)acrylamide], the figures for the IC50 in the experiment with MS751 cells, in the experiment on Z138 cells and in the experiment on 3T3 cells were 100 to 5000 nM, 100 to 5000 nM and 0.1 to 5 µM, respectively.

Turning to `Nc1ccc(/C=C/C(=O)NCCOc2ccc(-c3ccc(C(=O)N4CCCCC4)cc3)cc2Cl)cn1` [Compound 329, (E)-3-(6-aminopyridin-3-yl)-N-(2-(3-chloro-4′-(piperidine-1-carbonyl)biphenyl-4-yloxy)ethyl)acrylamide], the IC50 with MS751 cells was < 100 nM; with Z138 cells, < 100 nM; with 3T3 cells, > 10 µM.

Regarding `CN(CCOc1ccc(-c2ccc(C(=O)N3CC(F)(F)C3)cc2)cc1Cl)C(=O)/C=C/c1ccc(N)nc1` [Compound 334, (E)-3-(6-aminopyridin-3-yl)-N-(2-(3-chloro-4′-(3,3-difluoroazetidine-1-carbonyl)biphenyl-4-yloxy)ethyl)-N-methylacrylamide], the IC50 is 100 to 5000 nM in the experiment with MS751 cells, < 100 nM in the experiment on Z138 cells and 5 to 10 µM in the experiment with 3T3 cells.

With `CC(=O)c1ccc(-c2ccc(OCCNC(=O)/C=C/c3cccnc3)c(Cl)c2)s1` [Compound 300, (E)-N-(2-(4-(5-acetylthiophen-2-yl)-2-chlorophenoxy)ethyl)-3-(pyridin-3-yl)acrylamide], the half-maximal inhibitory concentration (IC50) was 100 to 5000 nM with MS751 cells, 100 to 5000 nM in the experiment with Z138 cells and > 10 µM with 3T3 cells.

Consider `CC(=O)c1ccc(-c2ccc(OCCNC(=O)/C=C/c3cccnc3Cl)c(Cl)c2)s1` [Compound 304, (E)-N-(2-(4-(5-acetylthiophen-2-yl)-2-chlorophenoxy)ethyl)-3-(2-chloropyridin-3-yl) acrylamide], for which the IC50 in the experiment with MS751 cells is 5000 to 10000 nM; in the experiment with Z138 cells, > 10000 nM; in the experiment on 3T3 cells it was > 10 µM.

For `CC(C)(CNC(=O)/C=C/c1ccc(N)nc1)Oc1ccc(F)c(-c2ccc(C(=O)N3CCOCC3)cc2)c1` [Compound 340, (E)-3-(6-aminopyridin-3-yl)-N-(2-(6-fluoro-4′-(morpholine-4-carbonyl)biphenyl-3-yloxy)-2-methylpropyl)acrylamide], the IC50 was 100 to 5000 nM in the experiment on MS751 cells, < 100 nM in the experiment with Z138 cells and > 10 µM with 3T3 cells.

For the compound `CC(=O)c1ccc(-c2ccc(OCCN(C)C(=O)/C=C/c3cccnc3)c(Cl)c2)s1` [Compound 311, (E)-N-(2-(4-(5-acetylthiophen-2-yl)-2-chlorophenoxy)ethyl)-N-methyl-3-(pyridin-3-yl)acrylamide], the half-maximal inhibitory concentration (IC50) in the experiment with MS751 cells fell in the range of 100 to 5000 nM; in the experiment on Z138 cells, 100 to 5000 nM; in the experiment on 3T3 cells, 0.1 to 5 µM.

Regarding `CC(=O)c1ccc(-c2cccc(OCCNC(=O)/C=C/c3cccnc3)c2Cl)s1` [Compound 302, (E)-N-(2-(3-(5-acetylthiophen-2-yl)-2-chlorophenoxy)ethyl)-3-(pyridin-3-yl) acrylamide], the results for the IC50 in the experiment on MS751 cells, in the experiment on Z138 cells and with 3T3 cells were < 100 nM, 100 to 5000 nM and 0.1 to 5 µM, respectively.

Take `CN(C)C(=O)c1ccc(-c2ccc(OCCNC(=O)/C=C/c3ccc(N)nc3)c(Cl)c2)cc1` [Compound 325, (E)-4′-(2-(3-(6-aminopyridin-3-yl)acrylamido)ethoxy)-3′-chloro-N,N-dimethylbiphenyl-4-carboxamide]: the figures for the IC50 in the experiment on MS751 cells, with Z138 cells and in the experiment on 3T3 cells were 100 to 5000 nM, 100 to 5000 nM and > 10 µM, respectively.

For the compound `CC(=O)c1ccc(-c2ccc(OCCNC(=O)/C=C/c3ccc(N)nc3)c(Cl)c2)s1` [Compound 308, (E)-N-(2-(4-(5-acetylthiophen-2-yl)-2-chlorophenoxy)ethyl)-3-(6-aminopyridin-3-yl) acrylamide], the IC50 is 100 to 5000 nM with MS751 cells, 100 to 5000 nM in the experiment on Z138 cells and > 10 µM in the experiment on 3T3 cells.

Take `Nc1ccc(/C=C/C(=O)NCCCOc2cc(Cl)cc(-c3ccc(C(=O)N4CCOCC4)cc3)c2)cn1` [Compound 345, (E)-3-(6-aminopyridin-3-yl)-N-(3-(5-chloro-4′-(morpholine-4-carbonyl)biphenyl-3-yloxy)propyl)acrylamide]: the IC50 was < 100 nM in the experiment with MS751 cells, < 100 nM in the experiment on Z138 cells and 0.1 to 5 µM with 3T3 cells.

Regarding `Nc1ccc(/C=C/C(=O)NCCCOc2ccc(-c3ccc(C(=O)N4CCOCC4)cc3)cc2Cl)cn1` [Compound 348, (E)-3-(6-aminopyridin-3-yl)-N-(3-(3-chloro-4′-(morpholine-4-carbonyl)biphenyl-4-yloxy)propyl)acrylamide], the figures for the IC50 in the experiment with MS751 cells, in the experiment on Z138 cells and with 3T3 cells were < 100 nM, < 100 nM and 0.1 to 5 µM, respectively.

Turning to `Nc1ccc(/C=C/C(=O)NCCS(=O)(=O)c2ccc(-c3ccc(C(=O)N4CC(F)(F)C4)cc3)cc2Cl)cn1` [Compound 337, (E)-3-(6-aminopyridin-3-yl)-N-(2-(3-chloro-4′-(3,3-difluoroazetidine-1-carbonyl)biphenyl-4-ylsulfonyl)ethyl)acrylamide], the IC50 with MS751 cells is > 10000 nM; in the experiment on Z138 cells it was > 10000 nM; in the experiment with 3T3 cells, > 10 µM.

In the case of `CC(C)(CNC(=O)/C=C/c1ccc(N)nc1)COc1ccc(-c2ccc(C(=O)N3CCOCC3)cc2)cc1Cl` [Compound 350, (E)-3-(6-Aminopyridin-3-yl)-N-(3-((3-chloro-4′-(morpholine-4-carbonyl)-[1,1′-biphenyl]-4-yl)oxy)-2,2-dimethylpropyl)acrylamide], the IC50 in the experiment on MS751 cells is 100 to 5000 nM; with Z138 cells, < 100 nM; in the experiment on 3T3 cells, 0.1 to 5 µM.

For the compound `CC(O)c1ccc(-c2ccc(OCCNC(=O)/C=C/c3cccnc3)c(Cl)c2)s1` (stereo not drawn) [Compound 301, (E)-N-(2-(2-chloro-4-(5-(1-hydroxyethyl)thiophen-2-yl)phenoxy)ethyl)-3-(pyridin-3-yl) acrylamide], the IC50 in the experiment with MS751 cells was < 100 nM; in the experiment with Z138 cells, 100 to 5000 nM; with 3T3 cells, 0.1 to 5 µM.

`Nc1ccc(CNC(=O)/C=C/COc2ccc(-c3ccc(C(=O)N4CCC(F)(F)CC4)cn3)cc2C(F)(F)F)cn1` [Compound 353, (E)-N-((6-aminopyridin-3-yl)methyl)-4-(4-(5-(4,4-difluoropiperidine-1-carbonyl)pyridin-2-yl)-2-(trifluoromethyl)phenoxy)but-2-enamide]: the figures for the IC50 in the experiment on MS751 cells, in the experiment with Z138 cells and with 3T3 cells were 100 to 5000 nM, 100 to 5000 nM and > 10 µM, respectively.

On to `CC(C)(O)c1ccc(-c2ccc(OCCNC(=O)/C=C/c3cccnc3)c(Cl)c2)s1` [Compound 320, (E)-N-(2-(2-chloro-4-(5-(2-hydroxypropan-2-yl)thiophen-2-yl)phenoxy)ethyl)-3-(pyridin-3-yl)acrylamide], for which the figures for the IC50 in the experiment with MS751 cells, in the experiment on Z138 cells and in the experiment with 3T3 cells were 100 to 5000 nM, 100 to 5000 nM and 5 to 10 µM, respectively.
